# Positions of bridges follow the written chain, without caps; N, C: chain ends. Residues, ends and D or L forms follow the SMILES beside them.
# Experiments:
# [1] = tested on: T20-resistant strains; experiment: Inhibition of T20-resistant HIV-1 variants, average; assay type: cell-based; conditions: comparison with CP24
# Experimental: (§1) Briefly, 1×10^5/mL MT-2 or M7 cells were infected with different HIV-1 viruses at 100 TCID50 (50% tissue culture infective dose) in the presence or absence of peptides at graded concentrations overnight. Then the culture supernatants were replaced with equal volume of fresh medium. On the fourth day post-infection, supernatants were collected and mixed with equal volume of 5% Triton X-100. […] The IC50 values were calculated with CalcuSyn software [35–36], and inhibition curves of best fit were generated with GraphPad Prism.
# [2] = tested on: HIV-1 JR-CSF; experiment: Therapeutic efficacy in humanized mice with established HIV-1 infection; assay type: in vivo, humanized NRG mice; conditions: n = 4
# Experimental: Humanized mice were inoculated with HIV-1 JR-CSF (10 ng p24/mouse) through retro-orbital injection and randomly assigned to 2 groups (4 mice in each group).
# HIV-1 genomic RNA was purified from plasma by using the QIAamp Viral RNA Mini Kit. The RNA was reverse-transcribed and quantitatively detected by real-time PCR with the TaqMan Fast Virus 1-Step PCR kit (Thermo Fisher Scientific). We used the forward primer 5’-[…]-3’ and the reverse primer 5’-[…]-3’ to detect the HIV gag gene. […] The limit of detection of each real-time PCR was 4 copies per reaction. Accordingly, owing to the relatively small volume of plasma in mice (about 50–100 μL total blood), the limit of detection was 400 copies/mL plasma. The copy numbers below the detectable limit were set as 1. Triplicate reactions were performed for each sample.
# [3] = tested on: cell-cell fusion between H9/HIV-1IIIB and MT-2 cells; conditions: IC50 comparison with CP24
# Experimental: The inhibitory activity of peptides against cell-cell fusion between H9/HIV-1IIIB and MT-2 cells was detected, as described previously [3, 81]. Briefly, H9/HIV-1IIIB cells were labeled with a fluorescent reagent, Calcein AM (Molecular Probes, Inc., Eugene, Oregon), and then incubated with MT-2 cells (ratio = 1:10) in a 96-well plate at 37 °C for 2 h in the presence of a test peptide at graded concentrations or PBS as a control. The fused and unfused Calcein-labeled HIV-1-infected cells were counted under an inverted fluorescence microscope (Zeiss, Germany). Three fields of each well were counted and the percentage of inhibition of cell fusion by peptides was calculated as described previously [81]. The IC50 values of fusion were calculated using the CalcusSn software [36] and the inhibition curves of best fit were generated with GraphPad Prism.
# [4] = tested on: HIV-1 IIIB; experiment: Inhibitors alone or in combination against HIV-1 IIIB; assay type: cell-based; conditions: mixture N6 / IBP-CP24, HIV-1 IIIB
# Experimental: The samples were serially diluted and tested for their inhibitory activity on HIV-1 infection as described above. The data were analyzed for synergistic effect by calculating the combination index (CI) with the CalcuSyn software. CI values of <0.95 and >1.05 indicate synergy and antagonism, respectively. CI <0.1, 0.1–0.3, 0.3–0.7, 0.7–0.85, and 0.85–0.90 indicate very strong synergism, strong synergism, synergism, moderate synergism, and slight synergism, respectively. Fold of dose reduction was calculated with the ratio of concentrations of inhibitor testing alone and in combination.
# [5] = tested on: Pseudoviruses; experiment: Inhibition of pseudotyped HIV-1 infection, panel average; assay type: cell-based; conditions: average IC50 of 12 pseudotyped strains
# Text: HIV-1 pseudoviruses were generated, as described previously.
# [6] = tested on: HIV-1 clinical strains; assay type: cell-based; conditions: 8 clinical strains
# Experimental: as §1
smiles,measurement,setting,value
CC[C@H](C)[C@H](NC(=O)[C@H](CC(C)C)NC(=O)[C@H](CCC(=O)O)NC(=O)[C@H](CCC(=O)O)NC(=O)[C@@H](NC(=O)[C@H](CCCCN)NC(=O)[C@H](CCCCN)NC(=O)[C@@H](NC(=O)[C@H](Cc1ccc(O)cc1)NC(=O)[C@H](CCC(=O)O)NC(=O)[C@H](CCC(=O)O)NC(=O)[C@@H](NC(=O)[C@H](CCCCN)NC(=O)[C@H](CCCCN)NC(=O)[C@H](CC(=O)O)NC(=O)[C@H](Cc1c[nH]c2ccccc12)NC(=O)[C@H](CCC(=O)O)NC(=O)[C@H](CCC(=O)O)NC(=O)[C@H](Cc1c[nH]c2ccccc12)NC(=O)[C@@H](NC(=O)[C@H](CCSC)NC(=O)[C@@H](NC(=O)[C@@H]1CSSC[C@H](NC(=O)[C@@H](N)CC(=O)O)C(=O)N[C@@H](C)C(=O)N[C@@H](Cc2c[nH]c3ccccc23)C(=O)N[C@@H](Cc2c[nH]cn2)C(=O)N[C@@H](CC(C)C)C(=O)NCC(=O)N[C@@H](CCC(=O)O)C(=O)N[C@@H](CC(C)C)C(=O)N[C@@H](C(C)C)C(=O)N[C@@H](Cc2c[nH]c3ccccc23)C(=O)N1)[C@@H](C)O)[C@@H](C)O)[C@@H](C)CC)[C@@H](C)O)[C@@H](C)CC)C(=O)N[C@@H](CCCCN)C(=O)N[C@@H](CCCCN)C(=O)N[C@@H](CO)C(=O)O [IBP-CP24] (H-DCAWHLGELVWCTMTWEEWDKKIEEYTKKIEELIKKS-OH; disulfide 2-12; N-terminus and C-terminus assumed),"average IC50 fold of that of CP24, T20-resistant strains",[1],about 1.5 fold
same,mean Δlog10 plasma HIV-1 RNA,"[2]; 20 mg/kg i.p. once daily for 14 days, coinjected with human IgG 40 mg/kg twice weekly",0.13 log10
same,average decrease of plasma HIV-1 RNA,"[2]; day 35 post-treatment, after twice daily 20 mg/kg for 21 days plus human IgG",1.42 log10
same,fold of CP24 in cell-cell fusion inhibition,[3],about 1.2 fold
same,Dose reduction,[4],3.6 fold
same,"fold more potent than CP24, pseudotyped strains",[5],~4.9 fold
same,"fold more potent than T20, pseudotyped strains",[5],about 24.2 fold
same,"average IC50 fold of that of CP24, clinical strains",[6]; comparison with CP24,~1.1 fold
same,"average IC50 fold of that of T20, clinical strains",[6]; comparison with T20,about 2.5 fold

# Source: publication PMC6894747 (PLoS Pathogens, 2019)
